Test results as given in US20110269790A1, “NOVEL THIENOPYRIDINES AS PHARMACOLOGICALLY ACTIVE AGENTS” (priority 2009, published 2011).

Experiments:
Wistar rats [1] = assay: Antidiabetic activity by starch loaded model; format: in vivo, rat; conditions: for % Increase in glucose, 30 min / Blood glucose level, 30 min: 30 min after starch; for % Increase in glucose, 30 min / Blood glucose level, 30 min / % Increase in glucose, 60 min / Blood glucose level, 60 min / % Increase in glucose, 90 min / Blood glucose level, 90 min / % Increase in glucose, 120 min / Blood glucose level, 120 min / Blood glucose level, 0 min: test compounds 100 mg/kg, Acarbose 10 mg/kg oral; for Blood glucose level, 30 min / Blood glucose level, 60 min / Blood glucose level, 90 min / Blood glucose level, 120 min / Blood glucose level, 0 min: in mg/dL (unit assumed); for % Increase in glucose, 60 min / Blood glucose level, 60 min: 60 min after starch; for % Increase in glucose, 90 min / Blood glucose level, 90 min: 90 min after starch; for % Increase in glucose, 120 min / Blood glucose level, 120 min: 120 min after starch; for Blood glucose level, 0 min: basal, prior to dosing
Excerpt: Experimental Animals—Wistar rats of either sex were used for the present study. Animals selected for use in the study were of uniform age and body weight. A minimum of 40 rats, from which eventually 20 rats were selected. Their body weights were in the range of 150-180 gm. The health status of the animals was ascertained by a veterinary surgeon. […] Animals were acclimatized for at least two weeks prior to start of the study. The animals were provided with pellet diet manufactured by NIN, HYDERABAD, India and drinking water adlibitum.
Compound Preparation The required quantity of the synthetic compounds were weighed and made suspension with gum acacia (2%). The test compounds were administered to all rats by per oral route. Acarbose suspension was also prepared in gum acasia suspension and given by oral route.
Antidiabetic activity by Starch model: The method of Rao et al., 2009;Tiwari et al was employed. Animals were fasted over night (12 hrs). Basal blood glucose levels were estimated for all the animals prior to dosing in test and standard groups. This was designated as “0” min reading. […] After test compounds administration animals in all three groups received Starch aqueous solution (2 gm/kg body weight). Blood glucose levels were monitored at 30, 60, 90 and 120 min after the administration of Starch in all the three groups. The percentage of increase in, blood glucose levels was calculated with respect to the control group at each time point.

TNF-α = TNF-α in rat paw tissue, FCA model (ELISA); format: in vivo; conditions: termination day
Method: (§1) Group I—Normal Control; Group II—Arthritic control; Group III—Arthritic rats administered with Synthetic compound BN-4; Group IV—arthritic rats administered with compound BN-14; Group V—arthritic rats administered with BN-16; Group VI—arthritic rats administered with standard drug indomethacin. Administration of test compounds and indomethacin started on the same day of adjuvant injection at the dose of 100 and 2.5 mg/kg respectively. The test and indomethacin doses continued up to 21 days in FCA induced model and 24 days in collagen induced model. During the study period the paw volumes were measured on 5th, 12th, 18th and 21 st days and the weight of the animals was also recorded at different time intervals. At each time point the percentage of inhibition of paw volume was calculated with reference to mean paw volume of control group In FCA model, animals were sacrificed on 21st day by cervical dislocation. Before sacrificing the animals, blood was collected and used for estimation of total leukocyte count, TNF-α and IL-1β.
In FCA induced study paw tissues were collected on termination day and estimated TNF-α and IL-1β levels for all the groups by ELISA method.

Wistar rats [2] = assay: Cotton pellet granuloma (sub acute model); format: in vivo, rat; conditions: BN compounds 100 mg/kg, Indomethacin 5 mg/kg, daily for 7 days
Method: Wistar rats weighing between 180-220 gms were anaesthetized with ether. The skin at their back was shaved and disinfected with 70% alcohol according to D'Arcy et al., 1960). An incision was made in the lumbar region. Using a blunt forceps subcutaneous tunnel was formed and a sterilized cotton pellet was placed on both sides in scapular region. Standard 20 mg cotton pellets was weighed and sterilized for the study. Rats were grouped into 5 groups of 6 animals each. […] On 8th day rats in all groups were sacrificed with anesthetic ether. Pellets were removed and kept overnight for incubation at 37° C. Then pellets were dried at 60° C. until they reach constant weight. The wet weight of pellets was also recorded after sacrificing. The average weights of pellets of control group and other treated groups were calculated. The percent change of granuloma weight was calculated for all the test groups comparing with control group.

IL-1β = IL-1β assay in murine macrophage cell line; format: cell-based, mouse; conditions: 50, 25, 12.5 μg/ml with LPS
Method: Cell Culture and Treatment: The RAW 264.7 (mouse macrophages, national center for cellular sciences) cells were grown in plastic T-25 culture flask in Dulbeccos modified eagles medium (DMEM) without phenol red supplemented with 10% heat activated serum (heating at 57° C. for 30 minutes, 100 μg per ml penicillin, 200 μg per ml streptomycin, 2 mmol L-glutamine, 1% antibiotic/Anti mycotic solution (GIBCO/SRL) under 5% co2 with 85% relative humidity at 37° C. After 2-3 days cells were removed from the culture flask by tripsinizing the cells with Trypsin EDTA solution. Cell count and viability was performed using a standard Trypan blue dye exclusion method. The cell concentration was adjusted to 1×10^5 cells per ml in each well with the same media in the 12 well plates. After 24 hrs incubation the media was removed from each well replaced with a fresh one containing different concentrations (50 μg, 25 μg, 12.5 μg) of the synthetic compounds BN-4, BN-14 and BN-16 along with 10 μg/ml LPS, where as normal control (PBS) and positive controls (Dexa, Roli) LPS (10 μg/ml), were added. 200 μl of media from each well was collected at 6 hrs for the estimation of TNF-α and after 24 hrs for Nitric Oxide respectively. The adherent cells, which remained after removing the media was subjected to […] for determining the cytotoxicity of compounds at selected concentrations
To determine the mechanism of action all test compounds were screened for invitro anti-inflammatory methods, which include TNF-a and IL-1b and Nitric Oxide. […] TNF-a is a pleiotropic cytokine, which plays a critical role in both acute and chronic inflammation (Holtzmann et al., 2002). Several inflammagens have the ability of inducing the synthesis of TNF-a. Formation of a number of small molecular mediators of inflammation is linked with TNF-a and contributes to the range of mediators that critically control inflammation. TNF-a facilitates inflammatory cell infiltration by promoting the adhesion of neutrophils and lymphocytes to endothelial cells (Dinarello, 1997).

Wistar rats [3] = assay: Freund's complete adjuvant (FCA) induced arthritis; format: in vivo, rat; conditions: BN compounds 100 mg/kg; for % Of inhibition, 5th Day / % Of inhibition, 12th Day / % Of inhibition, 18th Day / Body weight index, 21st DAY / Paw volume, 5th Day / Paw volume, 12th Day / Paw volume, 18th Day / Paw volume, 21st Day: indomethacin 2.5 mg/kg daily; for Body weight index, 21st DAY / Body weight index, 1st DAY: FCA study; for Paw volume, 5th Day / Paw volume, 12th Day / Paw volume, 18th Day / Paw volume, 21st Day: in mL (unit assumed); for Body weight index, 1st DAY: indomethacin 2.5 mg/kg; for Total WBC count: termination day, FCA model, Indomethacin 2.5 mg/kg
Method: Induction of Arthritis: Arthritis was induced by injecting Freund's complete adjuvant (FCA. Required quantity of FCA was weighed and suspension made with paraffin oil (DIFCO Laboratories) and administered at dose of 0.5 mg/rat in subplantar region of the right hind paw. After 7 days, a booster injection was given to all animals to hind paws.
Experimental Design Animals were divided into 6 groups of 6 rats each and were designated as:
as §1
Clinical Assessment of Adjuvant arthritis: Rats were examined for visual appearance of arthritis and the lesion of erythema and inflammation of periarticular tissues on 14th day, 18th day and on 21st day. Arthritis scoring scale as follows:
2=Mild swelling and erythema of the limb 3=Gross swelling and erythema of the limb 4=Gross deformity and inability to use the limb
The arthritis score of each rat was the sum of the scores of both hind limbs and maximum score was being 8 for each rat.

| Compound | % Increase in glucose, 30 min (Wistar rats [1]) [%] | Blood glucose level, 30 min (Wistar rats [1]) | % Increase in glucose, 60 min (Wistar rats [1]) [%] | Blood glucose level, 60 min (Wistar rats [1]) | % Increase in glucose, 90 min (Wistar rats [1]) [%] | Blood glucose level, 90 min (Wistar rats [1]) | % Increase in glucose, 120 min (Wistar rats [1]) [%] | Blood glucose level, 120 min (Wistar rats [1]) | Blood glucose level, 0 min (Wistar rats [1]; starch 2 gm/kg) | % Inhibition (TNF-α) (TNF-α) [%] | % Inhibition (granuloma dry weight) (Wistar rats [2]) [%] | % Inhibition (granuloma wet weight) (Wistar rats [2]) [%] | Granuloma Dry Weight (Wistar rats [2]) [mg] | Granuloma Wet Weight (Wistar rats [2]) [mg] | % Of inhibition, 5th Day (Wistar rats [3]) [%] | % Of inhibition, 12th Day (Wistar rats [3]) [%] | % Of inhibition, 18th Day (Wistar rats [3]) [%] | Body weight index, 21st DAY (Wistar rats [3]) | Paw volume, 5th Day (Wistar rats [3]) | Paw volume, 12th Day (Wistar rats [3]) | further results |
| --- | --- | --- | --- | --- | --- | --- | --- | --- | --- | --- | --- | --- | --- | --- | --- | --- | --- | --- | --- | --- | --- |
| Nc1c2c(nc3sc4c(c13)CCC4)CCCCCC2 [BN-17, 2,3,6,7,8,9,10,11-Octahydro-1H-cycloocta [b]cyclopenta[4,5]thieno[3,2-e]pyridin-12-amine] | 51.74 | 124.60 | 52.35 | 125.13 | 49.67 | 123.13 | 49.64 | 122.80 | 82.40 | – | – | – | – | – | – | – | – | – | – | – | – |
| Nc1c2c(nc3sc4c(c13)CCC4)CCC2 [BN-13, 1,2,3,6,7,8-hexahydrocyclopenta [b]cyclopenta[4,5] thieno[3,2-e]pyridin-9-amine] | 32.75 | 108.37 | 35.89 | 110.82 | 30.53 | 106.50 | 30.27 | 106.30 | 81.67 | – | – | – | – | – | – | – | – | – | – | – | Reduction in percentage increase in blood glucose levels (Wistar rats [1]; 100 mg/kg oral, starch 2 gm/kg, 30-120 min, vs diabetic control): greatest inhibitory activity |
| Cc1sc2nc3c(c(N)c2c1C)CCCCC3 [BN-4, 2,3-dimethyl-6,7,8,9-tetrahydro-5H-cyclohepta[b]thieno[3,2-e]pyridin-4-amine] | – | – | – | – | – | – | – | – | – | 42.9 ± 3.78 | 28.42 ± 3.09 | 22.23 ± 1.20 | 83.33 ± 3.59 | 366.08 ± 3.50 | 36.41 ± 3.84 | 42.88 ± 8.45 | 40.71 ± 7.59 | 199.87 ± 4.76 | 1.51 ± 0.09 | 1.42 ± 0.21 | Production of IL-1β from murine macrophage cell line (IL-1β): inhibitory effect; Paw volume, 18th Day (Wistar rats [3]): 1.55 ± 0.20; Paw volume, 21st Day (Wistar rats [3]): 1.63 ± 0.12; Body weight index, 1st DAY (Wistar rats [3]): 155.15 ± 3.1; Total WBC count (Wistar rats [3]): 18.53±1.36 |
| Nc1c2c(nc3sc4c(c13)CCC4)CCCCC2 [BN-16, 1,2,3,6,7,8,9,10-Octahydrocyclohepta[b]cyclopenta[4,5]thieno[3,2-e]pyridine-11-amine] | – | – | – | – | – | – | – | – | – | 37.42 ± 5.57 | 27.70 ± 1.82 | 23.09 ± 1.59 | 84.16 ± 2.11 | 365.08 ± 6.39 | 23.95 ± 4.49 | 39.11 ± 1.68 | 37.53 ± 09.04 | 206.38 ± 4.76 | 1.81 ± 0.11 | 1.51 ± 0.10 | Production of IL-1β from murine macrophage cell line (IL-1β): inhibitory effect; Paw volume, 18th Day (Wistar rats [3]): 1.64 ± 0.13; Paw volume, 21st Day (Wistar rats [3]): 1.59 ± 0.09; Body weight index, 1st DAY (Wistar rats [3]): 157.85 ± 2.08; Total WBC count (Wistar rats [3]): 17.3±1.63 |
| CC1CCc2c(nc3sc4c(c3c2N)CCC4)C1 (stereo not drawn) [BN-15, 7-Methyl-2,3,6,7,8,9-hexahydro-1H-cyclopenta[4,5]thieno[2,3-b]quinolin-10-amine] | 42.13 | 115.50 | 51.64 | 123.03 | 39.76 | 113.75 | 42.80 | 116.05 | 81.45 | – | – | – | – | – | – | – | – | – | – | – | – |
| COc1ccc2c(c1)c(CC(=O)O)c(C)n2C(=O)c1ccc(Cl)cc1 [Indomethacin, reference compound] | – | – | – | – | – | – | – | – | – | 29.06 ± 0.06 | 32.78 ± 1.88 | 26.93 ± 2.24 | 78.25 ± 2.19 | 338.01 ± 10.38 | 37.25 ± 2.36 | 45.43 ± 3.56 | 45.80 ± 6.09 | 182.68 ± 4.91 | 1.49 ± 0.06 | 1.35 ± 0.09 | Paw volume, 18th Day (Wistar rats [3]): 1.42 ± 0.02; Paw volume, 21st Day (Wistar rats [3]): 1.43 ± 0.08; Body weight index, 1st DAY (Wistar rats [3]): 157.85 ± 2.08; Total WBC count (Wistar rats [3]): 20.67±0.59 |
